Test results from PubChem BioAssay AID256 (DTP/NCI, 2004).
Values joined by “and” are separate entries in the source; they are usually repeats but may differ in a detail not shown here. Equal entries are not always repeated. Toxic doses and inconclusive results are not listed.

System: CD2F1 mice, L1210 leukemia ip, survival T/C
Assay: NCI In Vivo Anticancer Drug Screen. Data for tumor model L1210 Leukemia (intraperitoneal) in CD2F1 (CDF1) mice
Details: higher = longer survival
Summary of the method: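 Vehicle-treated tumor-bearing mice served as controls (C) for compound-treated mice (T). Reported figure is T divided by C.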

[1] = endpoint: mean survival time, dose: 6.25 mg/kg/injection, schedule: Q01DX009 (ip), vehicle: saline with Tween-80
[2] = endpoint: mean survival time, dose: 12.5 mg/kg/injection, schedule: Q01DX009 (ip), vehicle: saline with Tween-80
[3] = endpoint: mean survival time, dose: 25.0 mg/kg/injection, schedule: Q01DX009 (ip), vehicle: saline with Tween-80
[4] = endpoint: mean survival time, dose: 50.0 mg/kg/injection, schedule: Q01DX009 (ip), vehicle: saline with Tween-80
[5] = endpoint: mean survival time, dose: 100.0 mg/kg/injection, schedule: Q01DX009 (ip), vehicle: saline with Tween-80
[6] = endpoint: mean survival time, dose: 200.0 mg/kg/injection, schedule: Q01DX009 (ip), vehicle: saline with Tween-80
[7] = endpoint: mean survival time, dose: 100.0 mg/kg/injection, schedule: Q04DX003 (ip), vehicle: saline with Tween-80
[8] = endpoint: mean survival time, dose: 200.0 mg/kg/injection, schedule: Q04DX003 (ip), vehicle: saline with Tween-80
[9] = endpoint: mean survival time, dose: 400.0 mg/kg/injection, schedule: Q04DX003 (ip), vehicle: saline with Tween-80
[10] = endpoint: mean survival time, dose: 6.25 mg/kg/injection, schedule: Q01DX009 (ip), vehicle: saline
[11] = endpoint: mean survival time, dose: 100.0 mg/kg/injection, schedule: Q01DX001 (ip), vehicle: saline with Tween-80
[12] = endpoint: mean survival time, dose: 200.0 mg/kg/injection, schedule: Q01DX001 (ip), vehicle: saline with Tween-80
[13] = endpoint: mean survival time, dose: 400.0 mg/kg/injection, schedule: Q01DX001 (ip), vehicle: saline with Tween-80
[14] = endpoint: mean survival time, dose: 400.0 mg/kg/injection, schedule: Q01DX009 (ip), vehicle: saline with Tween-80

O=P(NCCCl)(NCCCl)Oc1ccccc1
T/C (endpoint: mean survival time, dose: 62.5 mg/kg/injection, schedule: Q01DX001 (ip), vehicle: water): 103 % of control
T/C (endpoint: mean survival time, dose: 125.0 mg/kg/injection, schedule: Q01DX001 (ip), vehicle: water): 97 % of control
T/C (endpoint: mean survival time, dose: 250.0 mg/kg/injection, schedule: Q01DX001 (ip), vehicle: water): 98 % of control
T/C (endpoint: mean survival time, dose: 500.0 mg/kg/injection, schedule: Q01DX001 (ip), vehicle: water): 98 % of control

CC1(c2ccc(Cl)cc2)OC(=O)C(=Cc2ccc([N+](=O)[O-])s2)C(=O)O1 (stereo not drawn)
T/C [1]: 101 % of control
T/C [2]: 98 % of control and 101 % of control
T/C [3]: 96 % of control and 100 % of control
T/C [4]: 100 % of control and 101 % of control
T/C [5]: 102 % of control and 112 % of control
T/C [6]: 97 % of control

COc1ccc(OC)c(/C=N/N=C/c2cc(OC)ccc2OC)c1
T/C [7]: 106 % of control
T/C [8]: 94 % of control
T/C [9]: 94 % of control

CCc1ccc2c(c1)N(CCCN(CCCl)CCCl)c1ccccc1S2
T/C (endpoint: mean survival time, dose: 18.0 mg/kg/injection, schedule: Q01DX001 (ip), vehicle: saline): 97 % of control
T/C (endpoint: mean survival time, dose: 28.0 mg/kg/injection, schedule: Q01DX001 (ip), vehicle: saline): 108 % of control
T/C (endpoint: mean survival time, dose: 40.0 mg/kg/injection, schedule: Q01DX001 (ip), vehicle: saline): 103 % of control
T/C (endpoint: mean survival time, dose: 60.0 mg/kg/injection, schedule: Q01DX001 (ip), vehicle: saline with Tween-80): 90 % of control

NC(=O)C(NCc1ccccc1)c1ccccc1 (stereo not drawn)
T/C [7]: 94 % of control
T/C [8]: 99 % of control

FC(F)(F)c1cccc(C(OCCN2CCCC2)c2ccccc2)c1 (stereo not drawn)
T/C [10]: 105 % of control
T/C (endpoint: mean survival time, dose: 12.5 mg/kg/injection, schedule: Q01DX009 (ip), vehicle: saline): 105 % of control
T/C (endpoint: mean survival time, dose: 25.0 mg/kg/injection, schedule: Q01DX009 (ip), vehicle: saline): 109 % of control

CCOC(=O)N1C2CCC(C2)N1C(=O)OCC
T/C [7]: 100 % of control
T/C [8]: 100 % of control
T/C [9]: 87 % of control

NC(=O)CCC(N)C(=O)O (stereo not drawn)
T/C (endpoint: mean survival time, dose: 1.56 mg/kg/injection, schedule: Q01DX009 (ip), vehicle: saline): 93 % of control
T/C (endpoint: mean survival time, dose: 3.13 mg/kg/injection, schedule: Q01DX009 (ip), vehicle: saline): 104 % of control
T/C [10]: 104 % of control
T/C (endpoint: median survival time, dose: 25.0 mg/kg/injection, schedule: Q01DX009 (ip), vehicle: saline): 94 % of control
T/C (endpoint: median survival time, dose: 50.0 mg/kg/injection, schedule: Q01DX009 (ip), vehicle: saline): 106 % of control
T/C (endpoint: median survival time, dose: 100.0 mg/kg/injection, schedule: Q01DX009 (ip), vehicle: saline): 106 % of control
T/C (endpoint: median survival time, dose: 200.0 mg/kg/injection, schedule: Q01DX009 (ip), vehicle: saline): 106 % of control
T/C (endpoint: median survival time, dose: 400.0 mg/kg/injection, schedule: Q01DX009 (ip), vehicle: saline): 104 % of control

CC(C)c1cc(O)c(C(C)C)cc1O
T/C (endpoint: mean survival time, dose: 75.0 mg/kg/injection, schedule: Q01DX001 (ip), vehicle: saline): 104 % of control
T/C (endpoint: mean survival time, dose: 150.0 mg/kg/injection, schedule: Q01DX001 (ip), vehicle: saline): 111 % of control

O=C(O)C1CC2C(=O)CCCCCCC2C1O (stereo not drawn)
T/C [11]: 93 % of control
T/C [5]: 98 % of control
T/C [12]: 98 % of control
T/C [6]: 93 % of control
T/C [13]: 91 % of control
T/C [14]: 96 % of control

CC(C)(C)c1cccc(OS(=O)(=O)c2cccc([N+](=O)[O-])c2)c1
T/C [5]: 94 % of control
T/C [6]: 94 % of control
T/C [14]: 94 % of control

O.O.O=C(O)c1ccccc1C(=O)O.[NH-]C1CCCCC1[NH-].[Pt+2]
T/C (endpoint: mean survival time, dose: 3.13 mg/kg/injection, schedule: Q04DX003 (ip), vehicle: dextrose): 109 % of control
T/C (endpoint: mean survival time, dose: 6.25 mg/kg/injection, schedule: Q04DX003 (ip), vehicle: dextrose): 106 % of control
T/C (endpoint: mean survival time, dose: 25.0 mg/kg/injection, schedule: Q04DX003 (ip), vehicle: dextrose): 106 % of control
T/C (endpoint: mean survival time, dose: 50.0 mg/kg/injection, schedule: Q04DX003 (ip), vehicle: dextrose): 95 % of control

CN(C)N(Cc1ccccc1)/N=N/c1nc[nH]c1C(N)=O
T/C (endpoint: mean survival time, dose: 50.0 mg/kg/injection, schedule: Q01DX001 (ip), vehicle: Klucel (hydroxypropylcellulose) (HPC)): 107 % of control
T/C (endpoint: mean survival time, dose: 50.0 mg/kg/injection, schedule: Q01DX009 (ip), vehicle: Klucel (hydroxypropylcellulose) (HPC)): 105 % of control
T/C (endpoint: mean survival time, dose: 100.0 mg/kg/injection, schedule: Q01DX001 (ip), vehicle: Klucel (hydroxypropylcellulose) (HPC)): 98 % of control
T/C (endpoint: mean survival time, dose: 100.0 mg/kg/injection, schedule: Q01DX009 (ip), vehicle: Klucel (hydroxypropylcellulose) (HPC)): 96 % of control
T/C (endpoint: mean survival time, dose: 200.0 mg/kg/injection, schedule: Q01DX001 (ip), vehicle: Klucel (hydroxypropylcellulose) (HPC)): 90 % of control
T/C (endpoint: mean survival time, dose: 200.0 mg/kg/injection, schedule: Q01DX009 (ip), vehicle: Klucel (hydroxypropylcellulose) (HPC)): 107 % of control

CC1(C)N=C(N)N=C(N)N1c1cccc(CCCCOc2ccccc2)c1
T/C [1]: 101 % of control
T/C [2]: 111 % of control
T/C [3]: 108 % of control

O=C(CCN1CCCCC1)c1ccc(C(F)(F)F)cc1
T/C (endpoint: mean survival time, dose: 3.13 mg/kg/injection, schedule: Q01DX009 (ip), vehicle: water): 90 % of control
T/C (endpoint: mean survival time, dose: 6.25 mg/kg/injection, schedule: Q01DX009 (ip), vehicle: water): 90 % of control

C=CCNC(=O)c1ccc[n+](CC(=O)Nc2ccccc2)c1
T/C [7]: 103 % of control

Cc1ccccc1N=Nc1ccc(O)cc1
T/C [4]: 105 % of control
T/C [11]: 103 % of control
T/C [5]: 100 % of control
T/C [12]: 92 % of control
T/C [6]: 103 % of control

C/C=C\C[P+](c1ccccc1)(c1ccccc1)c1ccccc1
T/C (endpoint: mean survival time, dose: 5.0 mg/kg/injection, schedule: Q01DX001 (ip), vehicle: saline with Tween-80): 101 % of control
T/C (endpoint: mean survival time, dose: 5.0 mg/kg/injection, schedule: Q01DX009 (ip), vehicle: saline with Tween-80): 102 % of control
T/C (endpoint: mean survival time, dose: 10.0 mg/kg/injection, schedule: Q01DX001 (ip), vehicle: saline with Tween-80): 104 % of control
T/C (endpoint: mean survival time, dose: 10.0 mg/kg/injection, schedule: Q01DX009 (ip), vehicle: saline with Tween-80): 102 % of control
T/C (endpoint: mean survival time, dose: 20.0 mg/kg/injection, schedule: Q01DX001 (ip), vehicle: saline with Tween-80): 104 % of control
T/C (endpoint: mean survival time, dose: 20.0 mg/kg/injection, schedule: Q01DX009 (ip), vehicle: saline with Tween-80): 122 % of control

COC(C(=O)C(O)C(C)O)C1Cc2cc3cc(OC4CC(OC5CC(O)C(O)C(C)O5)C(O)C(C)O4)c(C)c(O)c3c(O)c2C(=O)C1OC1CC(OC2CC(O)C(OC3CC(C)(O)C(O)C(C)O3)C(C)O2)C(O)C(C)O1 (stereo not drawn)
T/C (endpoint: mean survival time, dose: 0.13 mg/kg/injection, schedule: Q01DX009 (ip), vehicle: saline): 101 % of control
T/C (endpoint: mean survival time, dose: 0.25 mg/kg/injection, schedule: Q01DX009 (ip), vehicle: saline): 97 % of control
T/C (endpoint: mean survival time, dose: 0.5 mg/kg/injection, schedule: Q01DX009 (ip), vehicle: saline): 101 % of control
T/C (endpoint: mean survival time, dose: 1.0 mg/kg/injection, schedule: Q01DX009 (ip), vehicle: saline): 95 % of control

O=c1[nH]c2ccccc2c(=O)c2ccccc12
T/C [5]: 90 % of control
T/C [7]: 101 % of control
T/C [6]: 94 % of control
T/C [8]: 97 % of control
T/C [14]: 107 % of control
T/C [9]: 101 % of control

CC[C@@]1(O)C(=O)OCc2c1cc1n(c2=O)Cc2cc3cc(OC)ccc3nc2-1
T/C (endpoint: mean survival time, dose: 0.78 mg/kg/injection, schedule: Q04DX003 (ip), vehicle: water): 119 % of control
T/C (endpoint: mean survival time, dose: 3.13 mg/kg/injection, schedule: Q04DX003 (ip), vehicle: water): 155 % of control and 181 % of control
T/C (endpoint: mean survival time, dose: 6.25 mg/kg/injection, schedule: Q04DX003 (ip), vehicle: water): 113 % of control

CCC1CC(=O)C2Nc3ccccc3C2C1 (stereo not drawn)
T/C [11]: 88 % of control
T/C [13]: 86 % of control

O=C(CNC(=O)Nc1cccc(C(F)(F)F)c1)N/N=C/c1cccc([N+](=O)[O-])c1
T/C [4]: 96 % of control
T/C [5]: 88 % of control
T/C [6]: 92 % of control

O=C1CCc2ccccc21 (tested in a mixture with another compound)
T/C (endpoint: mean survival time, dose: 50.0 mg/kg/injection, schedule: Q04DX002 (ip), vehicle: saline with Tween-80): 96 % of control
T/C (endpoint: mean survival time, dose: 100.0 mg/kg/injection, schedule: Q04DX002 (ip), vehicle: saline with Tween-80): 101 % of control
T/C (endpoint: mean survival time, dose: 200.0 mg/kg/injection, schedule: Q04DX002 (ip), vehicle: saline with Tween-80): 96 % of control

c1ccc2c3c(ccc2c1)CN1CCCCC1C3 (stereo not drawn)
T/C [4]: 102 % of control
T/C [5]: 100 % of control
T/C [6]: 104 % of control

O=c1ccc2c([nH]1)CCCC2
T/C [4]: 92 % of control
T/C [5]: 103 % of control
T/C [6]: 103 % of control
